Results: ChEMBL document CHEMBL5584354, “Impact of Conjugation of the Reactive Oxygen Species (ROS)-Generating Catalytic Moiety with Membrane-Active Antimicrobial Peptoids: Promoting Multitarget Mechanism and Enhancing Selectivity” (J Med Chem, 2024)
≈ marks a conversion by molar mass, not a printed value. Non-standard residues stand in square brackets, D forms with d. Residues, ends and D or L forms follow the SMILES beside them. *: point of attachment. X3 = NC(=O)[C@H](Cc1c[nH]cn1)NC(=O)CNC(=O)[C@@H](N)CN(CCc1c[nH]c2ccccc12)*; X1 = NC(=O)[C@H](Cc1c[nH]cn1)NC(=O)CNC(=O)[C@@H](N)CN*; Gly(N(CH2)2(3-indolyl)) = O=C(O)CNCCc1c[nH]c2ccccc12; Nspe = C[C@H](NCC(=O)O)c1ccccc1; Nphe = O=C(O)CNCc1ccccc1; Nlys = NCCCCNCC(=O)O

What was measured:
[1] = Hemolytic activity in male Sprague-Dawley rat erythrocytes at 50 uM incubated for 1 hr by absorbance based method relative to control; assay type: toxicity, cell-based, Erythrocyte; conditions: read-out: Activity
Staphylococcus aureus = test: Antibacterial activity against Staphylococcus aureus ATCC 25923 assessed as inhibition of bacterial growth incubated for 24 hrs by broth dilution method; assay type: functional
Escherichia coli = test: Antibacterial activity against Escherichia coli ATCC 25922 assessed as inhibition of bacterial growth incubated for 24 hrs by broth dilution method; assay type: functional
[2] = Hemolytic activity in male Sprague-Dawley rat erythrocytes at 25 uM incubated for 1 hr by absorbance based method relative to control; assay type: toxicity, cell-based, Erythrocyte; conditions: read-out: Activity
[3] = Hemolytic activity in male Sprague-Dawley rat erythrocytes assessed as concentration required for 50% hemolysis incubated for 1 hr by absorbance based method; assay type: toxicity, cell-based, Erythrocyte
Erythrocyte = test: Hemolytic activity in male Sprague-Dawley rat erythrocytes assessed as concentration required for 10% hemolysis incubated for 1 hr by absorbance based method; assay type: toxicity, cell-based
[4] = Hemolytic activity in male Sprague-Dawley rat erythrocytes at 100 uM incubated for 1 hr by absorbance based method relative to control; assay type: toxicity, cell-based, Erythrocyte; conditions: read-out: Activity
[5] = Selectivity index, ratio of HC10 for hemolytic activity in male Sprague-Dawley rat erythrocytes to MIC for antibacterial activity against Escherichia coli ATCC 25922; assay type: toxicity; conditions: read-out: Selectivity Index

| SMILES | hemolysis at 1 h, 50 µM [1] [%] | MIC (Staphylococcus aureus) [µM] | MIC (Escherichia coli) [µM] | hemolysis at 1 h, 25 µM [2] [%] | HC50 at 1 h [3] [µM] | HC10 (Erythrocyte) [µM] | hemolysis at 1 h, 100 µM [4] [%] | selectivity ratio [5] |
| --- | --- | --- | --- | --- | --- | --- | --- | --- |
| C[C@@H](c1ccccc1)N(CC(=O)N(CCCCN)CC(=O)N(CC(=O)N(CC(=O)N(CCCCN)CC(=O)N(CC(=O)N(CC(=O)N(CCCCN)CC(=O)N(CC(=O)N(CC(N)=O)Cc1ccccc1)Cc1ccccc1)Cc1ccccc1)Cc1ccccc1)Cc1ccccc1)Cc1ccccc1)C(=O)CN(Cc1ccccc1)C(=O)CNCCCCN (H-[Nlys][Nphe][Nspe][Nlys][Nphe][Nphe][Nlys][Nphe][Nphe][Nlys][Nphe][Nphe]-NH2) | 3.75 | 6.3 (≈ 10.8 µg/mL) | 12.5 (≈ 21.5 µg/mL) | 0.21 | > 100 | 81.3 | 13.7 | 6.5 |
| C[C@@H](c1ccccc1)N(CC(=O)N(CCCCN)CC(=O)N(CC(=O)N(CC(=O)N(CCCCN)CC(=O)N(CC(=O)N(CC(=O)N(CCCCN)CC(=O)N(CCc1c[nH]c2ccccc12)CC(=O)N(CCc1c[nH]c2ccccc12)C[C@H](N)C(=O)NCC(=O)N[C@@H](Cc1c[nH]cn1)C(N)=O)[C@@H](C)c1ccccc1)[C@@H](C)c1ccccc1)[C@@H](C)c1ccccc1)[C@@H](C)c1ccccc1)C(=O)CN(C(=O)CNCCCCN)[C@@H](C)c1ccccc1 (H-[Nlys][Nspe][Nspe][Nlys][Nspe][Nspe][Nlys][Nspe][Nspe][Nlys][Gly(N(CH2)2(3-indolyl))]-X3) | 20.3 | 1.6 (≈ 3.39 µg/mL) | 6.3 (≈ 13.4 µg/mL) | 11.1 | > 100 | 25.4 | 29 | 4 |
| C[C@@H](c1ccccc1)N(CC(=O)N(CCCCN)CC(=O)N(CC(=O)N(CC(=O)N(CCCCN)CC(=O)N(CC(=O)N(CC(=O)N(CCCCN)CC(=O)N(CCc1c[nH]c2ccccc12)CC(=O)N(CCc1c[nH]c2ccccc12)CC(N)=O)[C@@H](C)c1ccccc1)[C@@H](C)c1ccccc1)[C@@H](C)c1ccccc1)[C@@H](C)c1ccccc1)C(=O)CN(C(=O)CNCCCCN)[C@@H](C)c1ccccc1 (H-[Nlys][Nspe][Nspe][Nlys][Nspe][Nspe][Nlys][Nspe][Nspe][Nlys][Gly(N(CH2)2(3-indolyl))][Gly(N(CH2)2(3-indolyl))]-NH2) | 50.7 | 1.6 (≈ 3.04 µg/mL) | 6.3 (≈ 12 µg/mL) | 29.9 | 63.8 | 7.7 | 69.4 | 1.2 |
| C[C@@H](c1ccccc1)N(CC(N)=O)C(=O)CN(CCCCN)C(=O)CN(C(=O)CN(C(=O)CN(CCCCN)C(=O)CN(C(=O)CN(C(=O)CN(CCCCN)C(=O)CN(C(=O)CN(C(=O)CNCCCCN)[C@@H](C)c1ccccc1)[C@@H](C)c1ccccc1)[C@@H](C)c1ccccc1)[C@@H](C)c1ccccc1)[C@@H](C)c1ccccc1)[C@@H](C)c1ccccc1 (H-[Nlys][Nspe][Nspe][Nlys][Nspe][Nspe][Nlys][Nspe][Nspe][Nlys][Nspe]-NH2) | 97.6 | 1.6 (≈ 2.65 µg/mL) | 6.3 (≈ 10.4 µg/mL) | 40.3 | 28.3 | 9.64 | 96.5 | 1.5 |
| C[C@@H](c1ccccc1)N(CC(=O)NC[C@H](N)C(=O)NCC(=O)N[C@@H](Cc1c[nH]cn1)C(N)=O)C(=O)CN(CCCCN)C(=O)CN(C(=O)CN(C(=O)CN(CCCCN)C(=O)CN(C(=O)CN(C(=O)CN(CCCCN)C(=O)CN(C(=O)CN(C(=O)CNCCCCN)[C@@H](C)c1ccccc1)[C@@H](C)c1ccccc1)[C@@H](C)c1ccccc1)[C@@H](C)c1ccccc1)[C@@H](C)c1ccccc1)[C@@H](C)c1ccccc1 (H-[Nlys][Nspe][Nspe][Nlys][Nspe][Nspe][Nlys][Nspe][Nspe][Nlys][Nspe]-X1) | 6.22 | 12.5 (≈ 24.2 µg/mL) | 12.5 (≈ 24.2 µg/mL) | 0.04 | > 100 | 62.6 | 19.1 | 5 |
| C[C@@H](c1ccccc1)N(CC(=O)NCC(=O)NC[C@H](N)C(=O)NCC(=O)N[C@@H](Cc1c[nH]cn1)C(N)=O)C(=O)CN(CCCCN)C(=O)CN(C(=O)CN(C(=O)CN(CCCCN)C(=O)CN(C(=O)CN(C(=O)CN(CCCCN)C(=O)CN(C(=O)CN(C(=O)CNCCCCN)[C@@H](C)c1ccccc1)[C@@H](C)c1ccccc1)[C@@H](C)c1ccccc1)[C@@H](C)c1ccccc1)[C@@H](C)c1ccccc1)[C@@H](C)c1ccccc1 (H-[Nlys][Nspe][Nspe][Nlys][Nspe][Nspe][Nlys][Nspe][Nspe][Nlys][Nspe]G-X1) | 8.79 | 12.5 (≈ 24.9 µg/mL) | 12.5 (≈ 24.9 µg/mL) | 2.02 | > 100 | 51.1 | 23.2 | 4 |
